Experimental data as given in patent US9428456B2, “1-[m-carboxamido(hetero)aryl-methyl]-heterocyclyl-carboxamide derivatives” (Actelion Pharmaceuticals Ltd., priority 2012, dated 2016).

What follows are compounds tested against CXCR7 (Homo sapiens (Human), UniProt P25106) (assay: PathHunter CHO-K1 CXCR7 b-arrestin assay (agonistic activity)). Settings: PathHunter CHO-K1 CXCR7 b-arrestin cell line.
Type: cell-based
Method: The CXCl12 receptor and CXCR7 agonistic activities of the compounds of formula (I) are determined in accordance with the following experimental method.
The assay is using the PathHunter™ CHO-K1 CXCR7 b-arrestin cell line from DiscoverX. The system is based on the Enzyme Fragment Complementation Technology. Two complementing fragments of the b-galactosidase enzyme are expressed within stably transfected cells. The larger portion of b-gal, termed EA for Enzyme Acceptor, is fused to the C-terminus of b-arrestin 2. The smaller fragment, termed ProLink™ tag, is fused to CXCR7 at the C-terminus. Upon activation, b-arrestin is recruited which forces the interaction of ProLink and EA, allowing complementation of the two fragments of b-gal and the formation of a functional enzyme which is capable of hydrolysing the substrate and generating a chemiluminescent signal.
CHO-K1 CXCR7 b-arrestin cells are detached from culture dishes with a cell dissociation buffer (Invitrogen, #13151-014) and collected in growing medium (F12 HAMS 90% (v/v)/FCS 10% (v/v), Penicilin/streptomycin 1% (v/v)). 5000 cells per well (in 20 μl) are seeded in a 384 well plate (white-walled, clear bottom; BD Falcon #353274). The plate is incubated at 37° C./5% CO2 for 24 hours. Medium is then replaced by 20 μl OPTIMEM (Invitrogen #31985) for 3 to 4 hours. Test compounds are dissolved at 10 mM in DMSO and serially diluted in DMSO to 200× of the final concentration for dose response curves. Compounds are then diluted 1:33.3 in HBSS1×. 5 μl/well of HBSS1×/20 mM HEPES/0.2% BSA are added to the assay plate followed by addition of 5 μl/well of diluted compounds. CXCL12 (Peprotech #300-28A) may be used as a reference agonist. The plate is incubated for 90 minutes at 37° C. 12 μl of detection reagent (Path Hunter Detection Kit, DiscoveRx, #93-0001) is transferred to the assay plate and to the plate is incubated for 1 hour at room temperature. Luminescent signal is read in a microplate reader (FLUOstar Optima, bmg). The calculated EC50 values may fluctuate depending on the daily cellular assay performance. Fluctuations of this kind are known to those skilled in the art. Average EC50 values from several measurements are given as geometric mean values.

Sequence of CXCR7 (P25106 whole entry): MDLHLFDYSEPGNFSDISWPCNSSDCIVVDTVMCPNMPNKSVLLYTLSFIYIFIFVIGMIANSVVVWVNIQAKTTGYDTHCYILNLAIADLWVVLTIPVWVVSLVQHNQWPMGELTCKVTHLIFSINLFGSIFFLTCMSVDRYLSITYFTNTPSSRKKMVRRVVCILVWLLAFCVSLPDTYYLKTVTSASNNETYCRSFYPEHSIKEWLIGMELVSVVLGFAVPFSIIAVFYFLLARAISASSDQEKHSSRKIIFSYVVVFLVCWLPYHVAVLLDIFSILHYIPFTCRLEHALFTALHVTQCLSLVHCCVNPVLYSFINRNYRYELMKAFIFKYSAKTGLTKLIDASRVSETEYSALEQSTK
Sequence of CXCR7 (P32121 whole entry partner): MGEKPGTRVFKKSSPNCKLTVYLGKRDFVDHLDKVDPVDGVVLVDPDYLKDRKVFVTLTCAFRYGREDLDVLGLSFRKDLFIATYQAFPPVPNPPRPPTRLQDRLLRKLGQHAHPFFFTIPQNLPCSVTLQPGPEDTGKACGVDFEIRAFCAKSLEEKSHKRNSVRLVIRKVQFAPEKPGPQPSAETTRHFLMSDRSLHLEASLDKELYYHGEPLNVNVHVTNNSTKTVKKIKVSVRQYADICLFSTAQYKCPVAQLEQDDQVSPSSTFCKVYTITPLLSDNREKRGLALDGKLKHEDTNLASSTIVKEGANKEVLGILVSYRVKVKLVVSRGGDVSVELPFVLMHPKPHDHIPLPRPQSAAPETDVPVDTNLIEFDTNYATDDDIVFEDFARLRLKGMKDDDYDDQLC

Structure (SMILES) | EC50
O=C(Nc1cccc(CN2CCC(C(=O)NC3CCCCC3)C2)c1)c1cccc(C(F)(F)F)n1 (racemic) [Example 2.099, rac-6-Trifluoromethyl-pyridine-2-carboxylic acid [3-(3-cyclohexylcarbamoyl-pyrrolidin-1-ylmethyl)-phenyl]-amide] | 60 nM
O=C(Cc1ccc(F)cc1Cl)Nc1cccc(CN2CCC(C(=O)NC3CCCCC3)C2)c1 (racemic) [Example 2.100, rac-1-{3-[2-(2-Chloro-4-fluoro-phenyl)-acetylamino]-benzyl}-pyrrolidine-3-carboxylic acid cyclohexylamide] | 161 nM
C[C@H]1C[C@@H](C(=O)NC(C)(C)C)CCN1Cc1cccc(NC(=O)c2cccc(C(F)(F)F)n2)c1 (racemic) [Example 2.102, rac-6-Trifluoromethyl-pyridine-2-carboxylic acid [3-((2S*,4S*)-4-tert-butylcarbamoyl-2-methyl-piperidin-1-ylmethyl)-phenyl]-amide] | 4 nM
Cc1cncc(C(=O)Nc2cccc(CN3CC[C@H](C(=O)NC(C)(C)C)C[C@@H]3C)c2)c1 (racemic) [Example 2.103, rac-N-[3-((2S*,4S*)-4-tert-Butylcarbamoyl-2-methyl-piperidin-1-ylmethyl)-phenyl]-5-methyl-nicotinamide] | 17 nM
Cc1cncc(C(=O)Nc2cccc(CN3CC[C@H](C(=O)NC4CCCCC4)C[C@@H]3C)c2)c1 (racemic) [Example 2.104, rac-N-[3-((2S*,4S*)-4-Cyclohexylcarbamoyl-2-methyl-piperidin-1-ylmethyl)-phenyl]-5-methyl-nicotinamide] | 4 nM
Cc1sc(C(=O)Nc2cccc(CN3CCC(C(=O)NC4CCCCC4)CC3)c2)cc1CC(C)C [Example 1.004] | 40 nM
Cc1cc(C(=O)Nc2cccc(CN3CCC(C(=O)NC4CCCCC4)CC3)c2)no1 [Example 1.005] | 18 nM
O=C(Nc1cccc(CN2CCC(C(=O)NC3CCCCC3)CC2)c1)c1ccncn1 [Example 1.006] | 2 nM
O=C(Nc1cccc(CN2CCC(C(=O)NC3CCCCC3)CC2)c1)c1ccc2ccccc2c1 [Example 1.007] | 6 nM
O=C(Nc1cccc(CN2CCC(C(=O)NC3CCCCC3)CC2)c1)c1n[nH]c2ccccc12 [Example 1.008] | 35 nM
COc1ccccc1C(=O)Nc1cccc(CN2CCC(C(=O)NC3CCCCC3)CC2)c1 [Example 1.009] | 17 nM
O=C(Nc1cccc(CN2CCC(C(=O)NC3CCCCC3)CC2)c1)c1cccc2ccncc12 [Example 1.010] | 68 nM
O=C(Cc1ccccc1)Nc1cccc(CN2CCC(C(=O)NC3CCCCC3)CC2)c1 [Example 1.011] | 7 nM
O=C(Nc1cccc(CN2CCC(C(=O)NC3CCCCC3)CC2)c1)c1ccsc1 [Example 1.012] | 4 nM
O=C(Cc1ccccn1)Nc1cccc(CN2CCC(C(=O)NC3CCCCC3)CC2)c1 [Example 1.013] | 20 nM
O=C(Nc1cccc(CN2CCC(C(=O)NC3CCCCC3)CC2)c1)c1ccccc1 [Example 1.014] | 3 nM
O=C(Cc1ccc2ccccc2c1)Nc1cccc(CN2CCC(C(=O)NC3CCCCC3)CC2)c1 [Example 1.015] | 78 nM
CC(C)C(=O)Nc1cccc(CN2CCC(C(=O)NC3CCCCC3)CC2)c1 [Example 1.016] | 121 nM
O=C(Nc1cccc(CN2CCC(C(=O)NC3CCCCC3)CC2)c1)C1CCCC1 [Example 1.017] | 29 nM
O=C(Nc1cccc(CN2CCC(C(=O)NC3CCCCC3)CC2)c1)c1cc(F)cc(F)c1 [Example 1.019] | 2 nM

Structure (SMILES) | EC50
CC(C)(C)CC(=O)Nc1cccc(CN2CCC(C(=O)NC3CCCCC3)CC2)c1 [Example 1.020] | 25 nM
O=C(Nc1cccc(CN2CCC(C(=O)NC3CCCCC3)CC2)c1)c1nccc2ccccc12 [Example 1.021] | 39 nM
O=C(Nc1cccc(CN2CCC(C(=O)NC3CCCCC3)CC2)c1)c1cncc2ccccc12 [Example 1.022] | 97 nM
COc1cccc(C(=O)Nc2cccc(CN3CCC(C(=O)NC4CCCCC4)CC3)c2)c1 [Example 1.023] | 4 nM
O=C(Cc1cccc(Cl)c1)Nc1cccc(CN2CCC(C(=O)NC3CCCCC3)CC2)c1 [Example 1.024] | 10 nM
O=C(Cc1ccccc1Cl)Nc1cccc(CN2CCC(C(=O)NC3CCCCC3)CC2)c1 [Example 1.025] | 3 nM
Cn1cc(C(=O)Nc2cccc(CN3CCC(C(=O)NC4CCCCC4)CC3)c2)c2ccccc21 [Example 1.026] | 182 nM
O=C(Nc1cccc(CN2CCC(C(=O)NC3CCCCC3)CC2)c1)c1c[nH]c2ccccc12 [Example 1.027] | 42 nM
O=C(Nc1cccc(CN2CCC(C(=O)NC3CCCCC3)CC2)c1)c1coc2ccccc12 [Example 1.028] | 4 nM
Cn1cc(CC(=O)Nc2cccc(CN3CCC(C(=O)NC4CCCCC4)CC3)c2)c2ccccc21 [Example 1.030] | 18 nM
COc1ccc(C(=O)Nc2cccc(CN3CCC(C(=O)NC4CCCCC4)CC3)c2)cc1 [Example 1.031] | 2 nM
CC(C)(C)c1ccc(C(=O)Nc2cccc(CN3CCC(C(=O)NC4CCCCC4)CC3)c2)cc1 [Example 1.032] | 34 nM
O=C(Nc1cccc(CN2CCC(C(=O)NC3CCCCC3)CC2)c1)c1cccc(Cl)c1 [Example 1.033] | 2 nM
O=C(CCc1ccccc1)Nc1cccc(CN2CCC(C(=O)NC3CCCCC3)CC2)c1 [Example 1.034] | 18 nM
COc1ccccc1CC(=O)Nc1cccc(CN2CCC(C(=O)NC3CCCCC3)CC2)c1 [Example 1.035] | 4 nM
O=C(Cc1ccc(Cl)cc1)Nc1cccc(CN2CCC(C(=O)NC3CCCCC3)CC2)c1 [Example 1.037] | 34 nM
O=C(Nc1cccc(CN2CCC(C(=O)NC3CCCCC3)CC2)c1)c1ncc[nH]1 [Example 1.038] | 13 nM
O=C(Nc1cccc(CN2CCC(C(=O)NC3CCCCC3)CC2)c1)c1ccccn1 [Example 1.039] | 1 nM
O=C(Nc1cccc(CN2CCC(C(=O)NC3CCCCC3)CC2)c1)c1cnc[nH]1 [Example 1.040] | 1260 nM
CC(C)Cc1ccc(C(=O)Nc2cccc(CN3CCC(C(=O)NC4CCCCC4)CC3)c2)cc1 [Example 1.041] | 43 nM

Structure (SMILES) | EC50
COc1ccc(CC(=O)Nc2cccc(CN3CCC(C(=O)NC4CCCCC4)CC3)c2)cc1 [Example 1.042] | 79 nM
O=C(CC1CCCCC1)Nc1cccc(CN2CCC(C(=O)NC3CCCCC3)CC2)c1 [Example 1.043] | 9 nM
O=C(Nc1cccc(CN2CCC(C(=O)NC3CCCCC3)CC2)c1)c1cn[nH]c1 [Example 1.044] | 1240 nM
O=C(CCc1nc2ccccc2[nH]1)Nc1cccc(CN2CCC(C(=O)NC3CCCCC3)CC2)c1 [Example 1.045] | 2490 nM
O=C(Nc1cccc(CN2CCC(C(=O)NC3CCCCC3)CC2)c1)c1ccc[nH]1 [Example 1.046] | 5 nM
COc1cccc(CC(=O)Nc2cccc(CN3CCC(C(=O)NC4CCCCC4)CC3)c2)c1 [Example 1.047] | 17 nM
O=C(Nc1cccc(CN2CCC(C(=O)NC3CCCCC3)CC2)c1)c1cccc2ccccc12 [Example 1.048] | 46 nM
O=C(Nc1cccc(CN2CCC(C(=O)NC3CCCCC3)CC2)c1)c1ccno1 [Example 1.049] | 7 nM
O=C(Nc1cccc(CN2CCC(C(=O)NC3CCCCC3)CC2)c1)c1ccccc1Cl [Example 1.050] | 12 nM
Cn1cnc(C(=O)Nc2cccc(CN3CCC(C(=O)NC4CCCCC4)CC3)c2)c1 [Example 1.051] | 130 nM
O=C(CC1Cc2ccccc2C1)Nc1cccc(CN2CCC(C(=O)NC3CCCCC3)CC2)c1 [Example 1.052] | 36 nM
O=C(Nc1cccc(CN2CCC(C(=O)NC3CCCCC3)CC2)c1)c1ccncc1 [Example 1.053] | 40 nM
Cc1cc(C(=O)Nc2cccc(CN3CCC(C(=O)NC4CCCCC4)CC3)c2)cc(C2CCCC2)n1 [Example 1.054] | 41 nM
Cc1cc(C(=O)Nc2cccc(CN3CCC(C(=O)NC4CCCCC4)CC3)c2)ccn1 [Example 1.055] | 10 nM
O=C(Nc1cccc(CN2CCC(C(=O)NC3CCCCC3)CC2)c1)c1cncc(F)c1 [Example 1.056] | 7 nM
O=C(Nc1cccc(CN2CCC(C(=O)NC3CCCCC3)CC2)c1)c1ccc(F)cn1 [Example 1.057] | 0.8 nM
O=C(Nc1cccc(CN2CCC(C(=O)NC3CCCCC3)CC2)c1)c1cncc(C(F)(F)F)c1 [Example 1.058] | 5 nM
O=C(Nc1cccc(CN2CCC(C(=O)NC3CCCCC3)CC2)c1)c1cccnc1C(F)(F)F [Example 1.059] | 393 nM
Cc1cncc(C(=O)Nc2cccc(CN3CCC(C(=O)NC4CCCCC4)CC3)c2)c1 [Example 1.060] | 4 nM
Cc1cccnc1C(=O)Nc1cccc(CN2CCC(C(=O)NC3CCCCC3)CC2)c1 [Example 1.061] | 1 nM
